Source: ChEMBL document CHEMBL4602617, “Discovery and optimization of heteroaryl piperazines as potent and selective PI3Kδ inhibitors” (Bioorg Med Chem Lett, 2020)

Legend:
[1] = target: NUAK family SNF1-like kinase 1 (Homo sapiens, UniProt O60285); test: Inhibition of recombinant full length His-tagged human NUAK1 expressed in baculovirus expression system using CHKtide as substrate after 1 hr in presence of ATP by Adapta assay
[2] = target: Casein kinase II subunit alpha (Homo sapiens, UniProt P68400); test: Inhibition of recombinant human full-length His-tagged CSNK2A1 expressed in baculovirus expression system using FRET-labeled Ser/Thr 11 peptide as substrate measured after 1 hr in presence of ATP by Z'-lyte assay
[3] = target: Tyrosine-protein kinase SYK (Homo sapiens, UniProt P43405); test: Inhibition of recombinant full length human GST-tagged SYK expressed in baculovirus expression system using tyrosine-2 peptide as substrate incubated for 60 mins in presence of ATP by Z'-LYTE assay
[4] = target: Platelet-derived growth factor receptor alpha (Homo sapiens, UniProt P16234, D842V); test: Inhibition of recombinant human GST-tagged PDGFRalpha D842V cytoplasmic domain expressed in baculovirus expression system using tyrosine-4 peptide as substrate incubated for 60 mins in presence of ATP by Z'-LYTE assay
[5] = target: Serine/threonine-protein kinase D3 (Homo sapiens, UniProt O94806); test: Inhibition of recombinant full length human GST-tagged PKD3 expressed in baculovirus expression system using serine/threonine-17 peptide as substrate incubated for 60 mins in presence of ATP by Z'-LYTE assay
[6] = target: Cyclin-dependent kinase 1/cyclin B1 (Homo sapiens, UniProt P06493); test: Inhibition of recombinant full length human His-tagged CDK1/CyclinB expressed in baculovirus expression system using serine/threonine-18 peptide as substrate incubated for 60 mins in presence of ATP by Z'-LYTE assay
[7] = target: Adenosine receptor A1 (Homo sapiens) (UniProt P30542); test: Displacement of [3H]DPCPX from full length recombinant human A1AR expressed in CHO cell membranes at 10 uM measured after 90 mins by scintillation counting method relative to control
[8] = target: Gastrin/cholecystokinin type B receptor (Homo sapiens) (UniProt P32239); test: Displacement of [125I]CCK-8 from recombinant full length human recombinant CCK2 expressed in Chem-1 cells at 10 uM measured after 3 hrs by radiometric scintillation analysis relative to control; assay type: cell-based
[9] = target: RAF proto-oncogene serine/threonine-protein kinase (Homo sapiens, UniProt P04049, Y340D/Y341D); test: Inhibition of recombinant human GST-tagged RAF1 Y340D Y341D mutant catalytic domain expressed in baculovirus expression system using serine/threonine-3 peptide as substrate incubated for 60 mins in presence of ATP by Z'-LYTE assay
[10] = target: Epidermal growth factor receptor (Homo sapiens, UniProt P00533); test: Inhibition of recombinant human GST-tagged EGFR expressed in baculovirus expression system using tyr-04 peptide as substrate incubated for 60 mins in presence of ATP by Z'-LYTE assay
[11] = target: Serine/threonine-protein kinase Nek6 (Homo sapiens, UniProt Q9HC98); test: Inhibition of recombinant full length human GST-tagged NEK6 expressed in insect expression system using serine/threonine-22 peptide as substrate incubated for 60 mins in presence of ATP by Z'-LYTE assay
Rattus norvegicus = species on record: Rattus norvegicus; test: Displacement of [3H]GABA from Wistar rat brain GABA at 10 uM after 20 mins by radiometric scintillation analysis relative to control
[12] = target: Platelet-derived growth factor receptor beta (Homo sapiens, UniProt P09619); test: Inhibition of recombinant human His-tagged PDGFRbeta cytoplasmic domain expressed in baculovirus expression system using tyrosine-4 peptide as substrate incubated for 60 mins in presence of ATP by Z'-LYTE assay
[13] = target: Phosphatidylinositol 4-kinase beta (Homo sapiens, UniProt Q9UBF8); test: Inhibition of recombinant full length human GST-tagged PI4KB expressed in baculovirus expression system using PI lipid as substrate incubated for 60 mins in presence of ATP by Adapta assay
[14] = target: Mitogen-activated protein kinase 3 (Homo sapiens, UniProt P27361); test: Inhibition of recombinant full-length human ERK1 expressed in Escherichia coli at 10 uM using MBP as substrate after 30 mins by radiometric scintillation analysis relative to control
[15] = target: Tyrosine-protein kinase JAK2 (Homo sapiens, UniProt O60674); test: Inhibition of recombinant GST-tagged human JAK2-JH1/JH2 domain (574 to 1154 residues) expressed in baculovirus expression system using Tyr 06 as substrate after 1 hr in presence of ATP by Z'LYTE assay
[16] = target: Dual specificity protein kinase CLK3 (Homo sapiens, UniProt P49761); test: Inhibition of recombinant full length human GST-tagged CLK3 expressed in baculovirus expression system using serine/threonine-18 peptide as substrate incubated for 60 mins in presence of ATP by Z'-LYTE assay
[17] = target: RAC-beta serine/threonine-protein kinase (Homo sapiens, UniProt P31751); test: Inhibition of recombinant full length human His-tagged AKT2 expressed in baculovirus expression system using Ser/Thr-06 peptide as substrate incubated for 60 mins in presence of ATP by Z'-LYTE assay
[18] = target: Mitogen-activated protein kinase 13 (Homo sapiens, UniProt O15264); test: Inhibition of recombinant full length human His-tagged p38delta expressed in baculovirus expression system using serine/threonine-3 peptide as substrate incubated for 60 mins in presence of ATP by Z'-LYTE assay
[19] = target: Beta-3 adrenergic receptor (Homo sapiens) (UniProt P13945); test: Displacement of [125I]cyanopindolol from full-length recombinant human beta3 adrenergic receptor expressed in HEK293 cell membranes at 10 uM measured after 90 mins by scintillation counting method relative to control
[20] = target: Myosin light chain kinase 2, skeletal/cardiac muscle (Homo sapiens, UniProt Q9H1R3); test: Inhibition of recombinant full length human GST-tagged MYLK2 expressed in baculovirus expression system using […] peptide as substrate incubated for 60 mins in presence of ATP by Z'-LYTE assay
[21] = target: Serine/threonine-protein kinase SIK2 (Homo sapiens, UniProt Q9H0K1); test: Inhibition of recombinant full length GST-tagged human SNF1LK2 expressed in baculovirus expression system using Ser/Thr 25 as substrate in presence of ATP after 1 hr by Z'LYTE assay
[22] = target: Serine/threonine-protein kinase D1 (Homo sapiens, UniProt Q15139); test: Inhibition of recombinant full length human GST-tagged PKCmu expressed in baculovirus expression system using serine/threonine-17 peptide as substrate incubated for 60 mins in presence of ATP by Z'-LYTE assay
[23] = target: Protein-tyrosine kinase 2-beta (Homo sapiens, UniProt Q14289); test: Inhibition of recombinant full length human N-terminal GST-tagged PTK2B cytoplasmic domain expressed in baculovirus expression system using tyr01 peptide as substrate incubated for 60 mins in presence of ATP by Z'-LYTE assay
Cavia porcellus = species on record: Cavia porcellus; test: Displacement of [3H]nitrobenzylthioinosine from adenosine transporter in guinea pig cerebral cortical membranes at 10 uM after 30 mins by radiometric scintillation analysis relative to control

Epidermal growth factor receptor, sequence (P00533 whole entry): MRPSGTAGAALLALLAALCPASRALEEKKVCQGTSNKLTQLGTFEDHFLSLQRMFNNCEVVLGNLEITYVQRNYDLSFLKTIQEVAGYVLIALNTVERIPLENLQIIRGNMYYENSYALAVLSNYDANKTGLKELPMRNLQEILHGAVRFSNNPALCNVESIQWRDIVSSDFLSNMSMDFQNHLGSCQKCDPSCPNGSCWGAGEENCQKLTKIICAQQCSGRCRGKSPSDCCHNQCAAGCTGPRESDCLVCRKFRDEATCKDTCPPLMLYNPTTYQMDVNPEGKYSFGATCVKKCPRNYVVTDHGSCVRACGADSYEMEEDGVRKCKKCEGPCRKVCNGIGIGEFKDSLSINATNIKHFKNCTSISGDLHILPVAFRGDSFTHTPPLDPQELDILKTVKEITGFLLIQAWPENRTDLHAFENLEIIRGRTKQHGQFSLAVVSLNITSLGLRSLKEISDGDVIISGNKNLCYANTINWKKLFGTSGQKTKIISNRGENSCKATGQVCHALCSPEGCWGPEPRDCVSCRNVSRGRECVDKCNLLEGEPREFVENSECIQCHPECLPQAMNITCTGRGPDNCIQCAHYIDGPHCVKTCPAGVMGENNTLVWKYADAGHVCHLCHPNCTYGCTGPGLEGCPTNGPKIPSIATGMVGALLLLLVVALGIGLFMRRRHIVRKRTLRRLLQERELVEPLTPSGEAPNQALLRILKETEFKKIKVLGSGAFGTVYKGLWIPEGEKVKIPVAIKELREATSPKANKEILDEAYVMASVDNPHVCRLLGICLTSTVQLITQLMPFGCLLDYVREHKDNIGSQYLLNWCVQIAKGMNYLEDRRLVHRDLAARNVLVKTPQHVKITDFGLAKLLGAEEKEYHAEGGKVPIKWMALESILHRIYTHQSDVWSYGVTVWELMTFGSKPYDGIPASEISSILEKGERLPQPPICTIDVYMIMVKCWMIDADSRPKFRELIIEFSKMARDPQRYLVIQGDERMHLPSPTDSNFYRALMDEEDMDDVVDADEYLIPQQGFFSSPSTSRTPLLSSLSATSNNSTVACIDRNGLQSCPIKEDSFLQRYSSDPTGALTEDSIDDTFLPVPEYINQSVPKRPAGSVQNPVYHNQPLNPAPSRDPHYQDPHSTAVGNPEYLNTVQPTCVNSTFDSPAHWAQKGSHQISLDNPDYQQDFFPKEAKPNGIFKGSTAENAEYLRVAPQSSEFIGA
Tyrosine-protein kinase JAK2, sequence (O60674 whole entry, the tested form may be a part): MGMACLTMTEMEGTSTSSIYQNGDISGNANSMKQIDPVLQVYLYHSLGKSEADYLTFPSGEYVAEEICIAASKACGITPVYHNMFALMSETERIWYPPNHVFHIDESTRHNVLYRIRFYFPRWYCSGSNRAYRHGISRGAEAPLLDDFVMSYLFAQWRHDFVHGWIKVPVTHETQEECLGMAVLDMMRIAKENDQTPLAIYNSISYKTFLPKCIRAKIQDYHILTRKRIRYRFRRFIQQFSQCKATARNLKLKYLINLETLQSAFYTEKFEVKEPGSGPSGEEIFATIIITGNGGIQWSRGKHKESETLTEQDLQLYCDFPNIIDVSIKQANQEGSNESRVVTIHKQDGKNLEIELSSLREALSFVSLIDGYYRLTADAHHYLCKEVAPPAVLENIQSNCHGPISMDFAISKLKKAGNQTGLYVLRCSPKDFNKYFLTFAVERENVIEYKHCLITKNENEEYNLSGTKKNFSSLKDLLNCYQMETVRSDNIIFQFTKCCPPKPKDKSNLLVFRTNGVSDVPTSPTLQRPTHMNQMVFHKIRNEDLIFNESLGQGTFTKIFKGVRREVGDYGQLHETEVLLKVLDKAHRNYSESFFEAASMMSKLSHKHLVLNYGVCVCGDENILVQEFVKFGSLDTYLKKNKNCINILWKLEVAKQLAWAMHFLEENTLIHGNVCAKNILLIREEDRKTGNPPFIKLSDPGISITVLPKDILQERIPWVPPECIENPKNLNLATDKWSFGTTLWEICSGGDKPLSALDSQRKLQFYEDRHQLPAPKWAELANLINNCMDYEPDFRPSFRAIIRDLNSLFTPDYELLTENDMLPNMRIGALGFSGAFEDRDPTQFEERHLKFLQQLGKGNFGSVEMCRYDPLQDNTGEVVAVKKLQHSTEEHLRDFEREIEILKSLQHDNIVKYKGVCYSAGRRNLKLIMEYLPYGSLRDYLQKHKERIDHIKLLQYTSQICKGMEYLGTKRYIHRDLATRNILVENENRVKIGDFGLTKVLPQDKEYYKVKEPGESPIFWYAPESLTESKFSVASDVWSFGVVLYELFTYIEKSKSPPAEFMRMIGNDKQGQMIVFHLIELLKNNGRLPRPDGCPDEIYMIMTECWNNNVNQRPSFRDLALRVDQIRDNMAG
Serine/threonine-protein kinase Nek6, sequence (Q9HC98 whole entry): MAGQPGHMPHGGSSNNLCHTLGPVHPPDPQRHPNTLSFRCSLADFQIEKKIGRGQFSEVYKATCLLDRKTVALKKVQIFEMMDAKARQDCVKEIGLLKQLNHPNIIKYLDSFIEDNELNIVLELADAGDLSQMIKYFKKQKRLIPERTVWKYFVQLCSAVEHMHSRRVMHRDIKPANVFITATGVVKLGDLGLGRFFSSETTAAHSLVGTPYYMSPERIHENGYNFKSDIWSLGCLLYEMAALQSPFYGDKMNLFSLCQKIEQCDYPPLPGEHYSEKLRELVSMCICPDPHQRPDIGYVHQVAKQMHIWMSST
Dual specificity protein kinase CLK3, sequence (P49761 whole entry): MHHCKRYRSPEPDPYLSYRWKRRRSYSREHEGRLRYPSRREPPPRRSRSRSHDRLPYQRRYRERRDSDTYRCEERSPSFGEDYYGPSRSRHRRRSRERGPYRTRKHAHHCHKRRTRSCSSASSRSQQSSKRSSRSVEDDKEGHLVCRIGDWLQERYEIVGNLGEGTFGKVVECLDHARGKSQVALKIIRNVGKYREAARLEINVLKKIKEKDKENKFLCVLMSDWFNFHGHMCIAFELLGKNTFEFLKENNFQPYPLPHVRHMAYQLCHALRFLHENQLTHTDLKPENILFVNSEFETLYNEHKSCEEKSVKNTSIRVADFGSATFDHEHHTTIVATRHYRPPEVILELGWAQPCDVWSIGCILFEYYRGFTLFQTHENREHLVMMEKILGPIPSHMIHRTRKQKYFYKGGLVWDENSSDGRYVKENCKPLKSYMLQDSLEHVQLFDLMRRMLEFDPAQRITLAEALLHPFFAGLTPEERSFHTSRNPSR
RAF proto-oncogene serine/threonine-protein kinase, sequence (P04049 whole entry Y340D/Y341D, the tested form may be a part): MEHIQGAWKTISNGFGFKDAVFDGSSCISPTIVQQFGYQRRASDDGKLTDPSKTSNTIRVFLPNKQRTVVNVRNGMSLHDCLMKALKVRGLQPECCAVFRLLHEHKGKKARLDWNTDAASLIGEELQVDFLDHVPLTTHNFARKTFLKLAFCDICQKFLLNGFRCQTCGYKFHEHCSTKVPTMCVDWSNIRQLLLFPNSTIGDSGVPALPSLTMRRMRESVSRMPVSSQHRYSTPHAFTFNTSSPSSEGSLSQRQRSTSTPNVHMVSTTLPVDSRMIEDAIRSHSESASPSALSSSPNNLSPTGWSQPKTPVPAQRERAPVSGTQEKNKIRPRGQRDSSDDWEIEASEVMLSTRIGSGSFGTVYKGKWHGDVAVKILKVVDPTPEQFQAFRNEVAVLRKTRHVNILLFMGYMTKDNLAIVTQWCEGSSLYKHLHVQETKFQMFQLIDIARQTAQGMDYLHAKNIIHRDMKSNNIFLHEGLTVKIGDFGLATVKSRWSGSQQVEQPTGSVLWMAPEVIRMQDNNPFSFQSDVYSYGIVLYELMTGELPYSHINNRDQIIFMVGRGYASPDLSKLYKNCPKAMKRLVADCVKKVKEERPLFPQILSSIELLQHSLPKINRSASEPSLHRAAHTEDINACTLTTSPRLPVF
Casein kinase II subunit alpha, sequence (P68400 whole entry): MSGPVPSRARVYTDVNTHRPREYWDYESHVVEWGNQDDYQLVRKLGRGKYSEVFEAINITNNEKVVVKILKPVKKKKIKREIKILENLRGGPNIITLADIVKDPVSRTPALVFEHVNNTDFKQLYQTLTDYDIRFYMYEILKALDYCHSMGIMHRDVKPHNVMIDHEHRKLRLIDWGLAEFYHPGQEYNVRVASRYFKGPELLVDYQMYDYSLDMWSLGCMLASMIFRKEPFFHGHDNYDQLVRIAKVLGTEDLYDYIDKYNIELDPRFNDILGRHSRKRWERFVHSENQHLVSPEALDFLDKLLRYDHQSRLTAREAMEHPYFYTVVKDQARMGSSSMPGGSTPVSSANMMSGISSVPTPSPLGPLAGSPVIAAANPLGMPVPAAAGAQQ
Beta-3 adrenergic receptor (Homo sapiens), sequence (P13945 whole entry, looked up): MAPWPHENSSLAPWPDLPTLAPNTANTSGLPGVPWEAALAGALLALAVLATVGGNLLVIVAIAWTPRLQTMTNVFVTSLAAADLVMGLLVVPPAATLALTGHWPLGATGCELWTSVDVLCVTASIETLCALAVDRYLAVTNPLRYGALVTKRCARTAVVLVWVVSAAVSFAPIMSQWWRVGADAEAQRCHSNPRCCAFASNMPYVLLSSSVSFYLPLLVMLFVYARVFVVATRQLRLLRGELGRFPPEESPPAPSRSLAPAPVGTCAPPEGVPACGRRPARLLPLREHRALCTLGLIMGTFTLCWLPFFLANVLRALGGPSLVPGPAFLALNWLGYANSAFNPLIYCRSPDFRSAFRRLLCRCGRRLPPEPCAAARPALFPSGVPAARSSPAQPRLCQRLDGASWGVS
Gastrin/cholecystokinin type B receptor (Homo sapiens), sequence (P32239 whole entry, the tested form may be a part): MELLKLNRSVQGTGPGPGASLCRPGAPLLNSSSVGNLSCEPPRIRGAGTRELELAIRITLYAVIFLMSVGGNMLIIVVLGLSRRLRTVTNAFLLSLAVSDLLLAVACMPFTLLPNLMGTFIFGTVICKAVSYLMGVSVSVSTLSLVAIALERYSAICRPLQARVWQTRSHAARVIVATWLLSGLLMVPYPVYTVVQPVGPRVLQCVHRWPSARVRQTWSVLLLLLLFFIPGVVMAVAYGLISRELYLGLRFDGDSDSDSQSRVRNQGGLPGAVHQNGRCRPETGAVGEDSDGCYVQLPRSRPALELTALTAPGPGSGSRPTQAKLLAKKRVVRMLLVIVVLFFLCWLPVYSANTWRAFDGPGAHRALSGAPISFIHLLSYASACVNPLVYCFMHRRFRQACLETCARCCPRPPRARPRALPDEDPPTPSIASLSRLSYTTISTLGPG

`C[C@@H]1C[C@H]1C(=O)N1CCN(c2cnc(C#N)c(-c3cnn(C)c3)n2)C[C@H]1C` was tested, and the IC50 [1] was over 100 µM, the IC50 [2] was over 100 µM and the IC50 [3] was over 100 µM. The IC50 [4] was over 100 µM, the IC50 [5] was over 100 µM and the IC50 [6] was over 100 µM. For the same compound, the inhibition [7] was 10%, the inhibition [8] was -4% and the IC50 [9] was over 100 µM. For the same compound, the IC50 [10] was over 100 µM, the IC50 [11] was over 100 µM and the inhibition (Rattus norvegicus) was 18%. The IC50 [12] was over 100 µM, the IC50 [13] was over 100 µM and the inhibition [14] was 18%. The IC50 [15] was over 100 µM, the IC50 [16] was over 100 µM and the IC50 [17] was over 100 µM. It also gave an IC50 [18] of over 100 µM, an inhibition [19] of -1% and an IC50 [20] of over 100 µM. For the same compound, the IC50 [21] was over 100 µM, the IC50 [22] was over 100 µM and the IC50 [23] was over 100 µM. It also gave an inhibition (Cavia porcellus) of 41%.
